Results: ChEMBL document CHEMBL6103592, “Discovery of novel thiazole-pleuromutilin derivatives with potent antibacterial activity” (Eur J Med Chem, 2025)
Converted amounts (≈) assume the structure as drawn.

How the values were obtained:
Assay type in all cases: functional
Enterococcus faecalis = assay: Antibacterial activity against Enterococcus faecalis assessed as inhibition of visible bacterial growth incubated for 24 hrs by CLSI based broth microdilution method
Mycoplasma = assay: Antibacterial activity against Mycoplasma F3 assessed as inhibition of visible bacterial growth incubated for 24 hrs by CLSI based broth microdilution method
Escherichia coli = assay: Antibacterial activity against Escherichia coli ATCC 25922 assessed as inhibition of visible bacterial growth incubated for 24 hrs by CLSI based broth microdilution method
Streptococcus agalactiae = assay: Antibacterial activity against Streptococcus agalactiae assessed as inhibition of visible bacterial growth incubated for 24 hrs by CLSI based broth microdilution method
Staphylococcus aureus [1] = assay: Antibacterial activity against methicillin-resistant Staphylococcus aureus ATCC 43300 assessed as inhibition of visible bacterial growth incubated for 24 hrs by CLSI based broth microdilution method
Staphylococcus aureus [2] = assay: Antibacterial activity against Staphylococcus aureus ATCC 25923 assessed as inhibition of visible bacterial growth incubated for 24 hrs by CLSI based broth microdilution method

Row | Structure (SMILES) | MIC (Enterococcus faecalis) | MIC (Mycoplasma) | MIC (Escherichia coli) | MIC (Streptococcus agalactiae) | MIC (Staphylococcus aureus [1]) | MIC (Staphylococcus aureus [2])
1 | C=C[C@]1(C)C[C@@H](OC(=O)CSc2nc(OC(=O)CC(C)C)cs2)[C@]2(C)[C@H](C)CC[C@]3(CCC(=O)[C@H]32)[C@@H](C)[C@@H]1O | > 32 µg/mL | 0.125 µg/mL (≈ 0.216 µM) | > 32 µg/mL | 0.125 µg/mL (≈ 0.216 µM) | 0.5 µg/mL (≈ 0.865 µM) | 1 µg/mL (≈ 1.73 µM)
2 | C=C[C@]1(C)C[C@@H](OC(=O)CSc2nc(OC(=O)c3cccc(OC)c3)cs2)[C@]2(C)[C@H](C)CC[C@]3(CCC(=O)[C@H]32)[C@@H](C)[C@@H]1O | > 32 µg/mL | 0.25 µg/mL (≈ 0.398 µM) | > 32 µg/mL | 0.063 µg/mL (≈ 0.1 µM) | 1 µg/mL (≈ 1.59 µM) | 1 µg/mL (≈ 1.59 µM)
3 | C=C[C@]1(C)C[C@@H](OC(=O)CSc2nc(OC(=O)c3ccccc3Cl)cs2)[C@]2(C)[C@H](C)CC[C@]3(CCC(=O)[C@H]32)[C@@H](C)[C@@H]1O | > 32 µg/mL | 0.25 µg/mL (≈ 0.395 µM) | > 32 µg/mL | 0.125 µg/mL (≈ 0.198 µM) | 0.5 µg/mL (≈ 0.791 µM) | 1 µg/mL (≈ 1.58 µM)
4 | C=C[C@]1(C)C[C@@H](OC(=O)CSc2nc(OC(=O)c3ccc(Cl)cc3)cs2)[C@]2(C)[C@H](C)CC[C@]3(CCC(=O)[C@H]32)[C@@H](C)[C@@H]1O | > 32 µg/mL | 0.25 µg/mL (≈ 0.395 µM) | > 32 µg/mL | 0.063 µg/mL (≈ 0.0996 µM) | 0.5 µg/mL (≈ 0.791 µM) | 0.5 µg/mL (≈ 0.791 µM)
5 | C=C[C@]1(C)C[C@@H](OC(=O)CSc2nc(OC(=O)c3ccccc3C)cs2)[C@]2(C)[C@H](C)CC[C@]3(CCC(=O)[C@H]32)[C@@H](C)[C@@H]1O | > 32 µg/mL | 1 µg/mL (≈ 1.63 µM) | > 32 µg/mL | 0.063 µg/mL (≈ 0.103 µM) | 1 µg/mL (≈ 1.63 µM) | 2 µg/mL (≈ 3.27 µM)
6 | C=C[C@]1(C)C[C@@H](OC(=O)CSc2nc(OC(=O)C3CCCC3)cs2)[C@]2(C)[C@H](C)CC[C@]3(CCC(=O)[C@H]32)[C@@H](C)[C@@H]1O | > 32 µg/mL | 0.25 µg/mL (≈ 0.424 µM) | > 32 µg/mL | 0.25 µg/mL (≈ 0.424 µM) | 1 µg/mL (≈ 1.7 µM) | 2 µg/mL (≈ 3.39 µM)
7 | C=C[C@]1(C)C[C@@H](OC(=O)CSc2nc(OC(=O)CCC)cs2)[C@]2(C)[C@H](C)CC[C@]3(CCC(=O)[C@H]32)[C@@H](C)[C@@H]1O | > 32 µg/mL | 0.25 µg/mL (≈ 0.443 µM) | > 32 µg/mL | 0.125 µg/mL (≈ 0.222 µM) | 1 µg/mL (≈ 1.77 µM) | 1 µg/mL (≈ 1.77 µM)
8 | C=C[C@]1(C)C[C@@H](OC(=O)CSc2nc(OC(=O)c3c(Cl)cc(Cl)cc3Cl)cs2)[C@]2(C)[C@H](C)CC[C@]3(CCC(=O)[C@H]32)[C@@H](C)[C@@H]1O | > 32 µg/mL | 1 µg/mL (≈ 1.43 µM) | > 32 µg/mL | 0.5 µg/mL (≈ 0.713 µM) | 16 µg/mL (≈ 22.8 µM) | 16 µg/mL (≈ 22.8 µM)
9 | C=C[C@]1(C)C[C@@H](OC(=O)CSc2nc(OC(=O)c3ccccc3)cs2)[C@]2(C)[C@H](C)CC[C@]3(CCC(=O)[C@H]32)[C@@H](C)[C@@H]1O | > 32 µg/mL | 0.25 µg/mL (≈ 0.418 µM) | > 32 µg/mL | 0.063 µg/mL (≈ 0.105 µM) | 1 µg/mL (≈ 1.67 µM) | 0.5 µg/mL (≈ 0.836 µM)
10 | C=C[C@]1(C)C[C@@H](OC(=O)CSc2nc(OC(=O)CCCCC)cs2)[C@]2(C)[C@H](C)CC[C@]3(CCC(=O)[C@H]32)[C@@H](C)[C@@H]1O | > 32 µg/mL | 0.5 µg/mL (≈ 0.845 µM) | > 32 µg/mL | 0.125 µg/mL (≈ 0.211 µM) | 1 µg/mL (≈ 1.69 µM) | 1 µg/mL (≈ 1.69 µM)
11 | C=C[C@]1(C)C[C@@H](OC(=O)CSc2nc(OC(=O)c3ccccc3Br)cs2)[C@]2(C)[C@H](C)CC[C@]3(CCC(=O)[C@H]32)[C@@H](C)[C@@H]1O | > 32 µg/mL | 0.5 µg/mL (≈ 0.739 µM) | > 32 µg/mL | 0.063 µg/mL (≈ 0.0931 µM) | 0.5 µg/mL (≈ 0.739 µM) | 2 µg/mL (≈ 2.96 µM)
12 | C=C[C@]1(C)C[C@@H](OC(=O)CSc2nc(OC(=O)C(CC)CCCC)cs2)[C@]2(C)[C@H](C)CC[C@]3(CCC(=O)[C@H]32)[C@@H](C)[C@@H]1O (some centres undefined) | > 32 µg/mL | 0.5 µg/mL (≈ 0.807 µM) | > 32 µg/mL | 0.25 µg/mL (≈ 0.403 µM) | 0.5 µg/mL (≈ 0.807 µM) | 2 µg/mL (≈ 3.23 µM)
13 | C=C[C@]1(C)C[C@@H](OC(=O)CSc2nc(OC(=O)c3cccc(C)c3)cs2)[C@]2(C)[C@H](C)CC[C@]3(CCC(=O)[C@H]32)[C@@H](C)[C@@H]1O | > 32 µg/mL | 0.5 µg/mL (≈ 0.817 µM) | > 32 µg/mL | 0.063 µg/mL (≈ 0.103 µM) | 0.5 µg/mL (≈ 0.817 µM) | 0.5 µg/mL (≈ 0.817 µM)
14 | C=C[C@]1(C)C[C@@H](OC(=O)CSc2nc(OC(=O)C(C)(C)CC)cs2)[C@]2(C)[C@H](C)CC[C@]3(CCC(=O)[C@H]32)[C@@H](C)[C@@H]1O | > 32 µg/mL | 0.125 µg/mL (≈ 0.211 µM) | > 32 µg/mL | 0.063 µg/mL (≈ 0.106 µM) | 0.5 µg/mL (≈ 0.845 µM) | 0.25 µg/mL (≈ 0.422 µM)
